The target of test [1] is T1, human 11β-HSD1 (Homo sapiens, UniProt P28845).
T1 construct: expressed in transfected cells
The following applies: substrate of 11β-HSD1, cited from earlier work.

The target of test [2] is T2, RORγ (Homo sapiens, UniProt P51449).
T2 sequence (P51449 1-518): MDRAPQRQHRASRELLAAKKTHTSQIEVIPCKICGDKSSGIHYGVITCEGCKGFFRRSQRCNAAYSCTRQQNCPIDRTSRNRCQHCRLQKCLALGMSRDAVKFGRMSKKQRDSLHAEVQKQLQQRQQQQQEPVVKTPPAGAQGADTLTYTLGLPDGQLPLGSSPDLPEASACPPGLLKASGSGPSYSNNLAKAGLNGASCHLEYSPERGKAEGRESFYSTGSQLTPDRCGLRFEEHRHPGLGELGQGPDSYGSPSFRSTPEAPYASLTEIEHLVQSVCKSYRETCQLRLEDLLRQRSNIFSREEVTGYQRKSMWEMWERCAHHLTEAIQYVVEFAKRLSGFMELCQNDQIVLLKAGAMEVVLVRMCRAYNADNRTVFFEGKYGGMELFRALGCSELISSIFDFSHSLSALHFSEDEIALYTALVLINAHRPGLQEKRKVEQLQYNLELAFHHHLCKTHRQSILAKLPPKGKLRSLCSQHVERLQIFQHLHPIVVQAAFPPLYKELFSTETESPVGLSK
In words: Glucose-6-phosphatase luciferase reporter in SW-620 cells overexpressing RORγ (preliminary). The format is cell-based. Further details: expressed in transfected cells; host or cells: SW-620. The following applies: inhibition of 11β-HSD2 by GA in SW-620 cells, trend. A general note: Reporter assays use an easily measured gene product as a stand-in for the process of interest.

Test [3] deals with T3, 11β-HSD2 (Homo sapiens, UniProt P80365).
T3 construct: expressed in transfected cells
T3 sequence (P80365 1-405): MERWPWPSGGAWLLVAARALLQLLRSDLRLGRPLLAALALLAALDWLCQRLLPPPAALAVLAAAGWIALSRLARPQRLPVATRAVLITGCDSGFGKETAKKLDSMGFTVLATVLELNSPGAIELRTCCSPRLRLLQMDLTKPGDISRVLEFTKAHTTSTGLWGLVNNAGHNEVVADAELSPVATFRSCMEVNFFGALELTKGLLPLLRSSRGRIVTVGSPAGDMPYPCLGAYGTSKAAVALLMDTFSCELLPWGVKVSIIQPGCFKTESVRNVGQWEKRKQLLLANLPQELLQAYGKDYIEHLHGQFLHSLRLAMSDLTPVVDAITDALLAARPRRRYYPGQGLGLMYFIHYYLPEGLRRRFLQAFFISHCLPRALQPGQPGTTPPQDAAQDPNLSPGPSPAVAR
The following applies: substrate of 11β-HSD2, ref [34], cited from earlier work.

In test [4] the target is T3, 11β-HSD2. More on the design: method as in PMID 30902677. The following applies: intact cells, oxidation by 11β-HSD2, ref [46], cited from earlier work.
The target of test [5] is T1, human 11β-HSD1. Further details: method as in PMID 30902677. The following applies: intact cells, oxoreduction by 11β-HSD1, ref [46], cited from earlier work.

Read-outs that look alike come from different tables or passages of the source.

T1 sequence (P28845 whole entry): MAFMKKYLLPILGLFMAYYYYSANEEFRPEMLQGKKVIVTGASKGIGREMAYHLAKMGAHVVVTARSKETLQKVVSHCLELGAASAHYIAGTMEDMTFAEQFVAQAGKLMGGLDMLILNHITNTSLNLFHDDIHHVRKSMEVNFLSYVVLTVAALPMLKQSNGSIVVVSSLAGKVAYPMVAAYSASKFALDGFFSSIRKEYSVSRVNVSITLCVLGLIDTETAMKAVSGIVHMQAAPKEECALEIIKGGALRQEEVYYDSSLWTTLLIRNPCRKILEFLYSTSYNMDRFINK

Turning to `CC(C)CCC[C@@H](C)[C@H]1CC[C@H]2[C@@H]3C(=O)C=C4C[C@@H](O)CC[C@]4(C)[C@H]3CC[C@]12C` [7kC, 7-ketocholesterol], in test [1] (ref [19]), the KMapp was approximately 500 nM.

As for `C[C@H](CCC(=O)O)[C@H]1CC[C@H]2[C@@H]3C(=O)C[C@@H]4C[C@H](O)CC[C@]4(C)[C@H]3CC[C@]12C` [7oxoLCA, 7-oxolithocholic acid], the KMapp in test [1] (ref [49]) is listed as approximately 1000 nM.

On to `C[C@]12CC(=O)[C@H]3[C@@H](CCC4=CC(=O)CC[C@@]43C)[C@@H]1CC[C@@H]2C(=O)CO` [11-DHC, 11-dehydrocorticosterone], for which the KMapp in test [1] (ref [19], [34]) is 250 to 500 nM.

In the case of `CC1(C)[C@@H](O)CC[C@]2(C)[C@H]3C(=O)C=C4[C@@H]5C[C@@](C)(C(=O)O)CC[C@]5(C)CC[C@@]4(C)[C@]3(C)CC[C@@H]12` [GA, glycyrrhetinic acid], in test [2], the “Increase of RORγ activity compared with cells treated with 7β27OHC only” value is reported as “approximately 10%”.

`C[C@]12CCC(=O)C=C1CC[C@@H]1[C@@H]2[C@@H](O)C[C@@]2(C)[C@H]1CC[C@]2(O)C(=O)CO` [cortisol]: the values for the KMapp in test [3] and in test [3] (listed as Cortisol) were approximately 200 nM and 200 ([34]) nM, respectively. The Vapp cell intact in test [4] was 1.01 ± 0.35 nmol·h^−1·mg total protein^−1; in test [4] (listed as Cortisol) it was 1.01 ± 0.35 ([46]) nmol·h^−1·mg total protein^−1.

Consider `C[C@]12CCC(=O)C=C1CC[C@@H]1[C@@H]2C(=O)C[C@@]2(C)[C@H]1CC[C@]2(O)C(=O)CO` [cortisone, reference compound], for which the KMapp in test [1] (ref [19], [34]) was 250 to 500 nM; in test [1] (ref [19], [34], listed as Cortisone) it was 250–500 ([19], [34]) nM. Further, the Vapp cell intact in test [5] was 1.59 ± 0.25 nmol·h^−1·mg total protein^−1; in test [5] (listed as Cortisone), 1.59 ± 0.25 ([46]) nmol·h^−1·mg total protein^−1.

The values are drawn from PMC6718442, “11β-Hydroxysteroid dehydrogenases control access of 7β,27-dihydroxycholesterol to retinoid-related orphan receptor γ” (Journal of Lipid Research, 2019).
